≈ marks a conversion by molar mass, not a printed value.
Experiments:
Assay type in all cases: cell-based, human
HepG2 = test: MTT cytotoxicity assay, HepG2; conditions: for IC50: Homo sapiens, HepG2, Table 1, natural phenanthrenes
Description: (§1) The cytotoxic assay of 11 naturally occurring and 19 synthesized phenanthrenes was carried out on a diverse set of human liver (HepG2 and Hep3B), oral (Ca9-22), lung (A549) and breast (MEA-MB-231 and MCF7) cancer cell lines, and a human fetal lung fibroblast (MRC-5) cell line (Tables 1 and 2).
(§2) Compounds were tested against human liver (HepG2 and Hep3B), oral (Ca9-22), lung (A549), breast (MEA-MB-231 and MCF7) cancer cell lines, and the human fetal lung fibroblast (MRC-5) cell line using an established colorimetric MTT assay protocol. The absorbance was measured at 550 nm using a microplate reader. The IC50 is the concentration of agent that reduced cell growth by 50% under the experimental conditions.

Hep3B = test: MTT cytotoxicity assay, Hep3B; conditions: for IC50: Homo sapiens, Hep3B, Table 1, natural phenanthrenes
Description: as §1, §2

Ca9-22 = test: MTT cytotoxicity assay, Ca9-22; conditions: for IC50: Homo sapiens, Ca9-22, Table 1, natural phenanthrenes
Description: as §1, §2

A549 = test: MTT cytotoxicity assay, A549; conditions: for IC50: Homo sapiens, A549, Table 1, natural phenanthrenes
Description: as §1, §2

MCF-7 = test: MTT cytotoxicity assay, MCF-7; conditions: for IC50 / MCF-7 activity class (from IC50): Homo sapiens; for IC50: MCF7, Table 1, natural phenanthrenes; for MCF-7 activity class (from IC50): MCF7, Table S3, read-out: Scale Exptl. (MCF-7 activity class)
Description: as §1, §2
The pharmacophore modeling with Catalyst HypoGen was performed via Discovery Studio 2.1 (Accelrys, San Diego, CA, USA). Twenty-nine phenanthrene derivatives were collected from the natural plant, C. arisanensis, and from chemical synthesis (Figure 2). Cytotoxicity against MCF-7 cells was determined by the MTT assay and the concentration (µg/mL) of test compound which inhibited 50% of the cancer cells (IC50) was used in the generation of the pharmacophore model. An IC50 value of >20 µg/mL was defined as 20 µg/mL. All experimental IC50 values spanned about 2–3 orders of magnitude from 0.09 to 20 µg/mL. The 2D/3D structures of compounds were generated using ChemBioOffice 2008 (Cambridge Scientic Computing, Cambridge, Massachusetts, USA) and then optimized in a Dreiding force field. The conformational ensemble of each compound was generated using the best conformational analysis method based on a CHARMM force field with a 20 kcal/mol energy threshold above the global minimum. A maximum limit of 255 conformations was used to cover maximum conformational space. The best 3D arrangements of chemical functionalities should explain the activity variations among the 29 compounds. Thirty runs with different parameters were performed for the best pharmacophore hypothesis. Four chemical features, including hydrogen-bond acceptor (HBA), hydrogen-bond donor (HBD), hydrophobic (HYD), and aromatic ring (AR) features, were also tested during the building of pharmacophore hypotheses (Table S1; Text S1). The best hypotheses were selected via a correlation and a cost analysis in Catalyst HypoGen.

MDA-MB-231 = test: MTT cytotoxicity assay, MDA-MB-231; conditions: for IC50: Homo sapiens, MDA-MB-231, Table 1, natural phenanthrenes
Description: as §1, §2

MRC-5 = test: MTT cytotoxicity assay, MRC-5 fetal lung fibroblast; conditions: normal fetal lung fibroblast; for IC50: Homo sapiens, MRC5, Table 1, natural phenanthrenes
Description: as §1, §2

[1] = Table 2, synthesized phenanthrenes

| Compound | IC50 HepG2 (HepG2; [1]) | IC50 Hep3B (Hep3B; [1]) | IC50 Ca9-22 (Ca9-22; [1]) | IC50 A549 (A549; [1]) | IC50 MCF-7 (MCF-7; Table 2, synthesized phenanthrenes, MTT) | Scale Exptl. (MCF-7 activity class) (MCF-7; Table S3) | IC50 MDA-MB-231 (MDA-MB-231; [1]) | IC50 MRC-5 (MRC-5; [1]) | IC50 (HepG2) | IC50 (Hep3B) | IC50 (Ca9-22) | IC50 (A549) | IC50 (MCF-7; MTT) | MCF-7 activity class (from IC50) (MCF-7) | IC50 (MDA-MB-231) | IC50 (MRC-5) |
| --- | --- | --- | --- | --- | --- | --- | --- | --- | --- | --- | --- | --- | --- | --- | --- | --- |
| 5,6,7,5′,6′,7′-hexamethoxy-[8,8′]bi-1,4-phenanthrenequinone [Compound 4c] | 6.87 ± 0.10 µg/mL | 4.37 ± 0.00 µg/mL | 1.90 ± 0.01 µg/mL | 12.65 ± 0.48 µg/mL | 4.71 ± 0.26 µg/mL | ++ (moderately active (1.0 μg/mL < IC50 < 20.0 μg/mL, ++)) | 4.09 ± 0.12 µg/mL | 5.37 ± 0.25 µg/mL |  |  |  |  |  |  |  |  |
| COC1=CC(=O)c2ccc3cc(OC)c(O)c(OC)c3c2C1=O [CA-2, calanquinone B] |  |  |  |  |  |  |  |  | 14.5 ± 0.43 µg/mL (≈ 46 µM) | 11.9 ± 0.55 µg/mL (≈ 38 µM) | 14.64 ± 0.11 µg/mL (≈ 46.6 µM) | 18.5 ± 0.29 µg/mL (≈ 58.9 µM) | 11.9 ± 0.08 µg/mL (≈ 37.9 µM) | 1 to 20 µg/mL | > 20 µg/mL | > 20 µg/mL |
| COc1cc2c(c(OC)c1O)C1=C(CC2)C(=O)C=CC1=O [CA-3] |  |  |  |  |  |  |  |  | 19.76 ± 0.16 µg/mL (≈ 69 µM) | 6.02 ± 0.12 µg/mL (≈ 21 µM) | 12.6 ± 0.76 µg/mL (≈ 43.8 µM) | > 20 µg/mL | 13.2 µg/mL (≈ 46.3 µM) | 1 to 20 µg/mL | 11.9 ± 0.02 µg/mL (≈ 41.6 µM) | > 20 µg/mL |
| COc1cc2c(c(OC)c1O)-c1c(O)ccc(O)c1CC2 [CA-4] |  |  |  |  |  |  |  |  | > 20 µg/mL | 11.1 ± 0.73 µg/mL (≈ 38.3 µM) | 15.12 ± 0.14 µg/mL (≈ 52.4 µM) | > 20 µg/mL | 14.3 ± 0.18 µg/mL (≈ 49.6 µM) | 1 to 20 µg/mL | 19.8 ± 0.45 µg/mL (≈ 68.8 µM) | > 20 µg/mL |
| COc1c(O)cc2c(c1OC)-c1c(O)ccc(O)c1CC2 [CA-5] |  |  |  |  |  |  |  |  | 17.8 ± 0.4 µg/mL (≈ 61.7 µM) | 9.87 ± 0.09 µg/mL (≈ 34.2 µM) | 12.17 ± 0.03 µg/mL (≈ 42.2 µM) | > 20 µg/mL | 12.7 ± 0.07 µg/mL (≈ 44.1 µM) | 1 to 20 µg/mL | 11.7 ± 0.13 µg/mL (≈ 40.4 µM) | > 20 µg/mL |
| COc1cc2c(c(OC)c1OC)-c1c(O)ccc(O)c1CC2 [CA-6] |  |  |  |  |  |  |  |  | > 20 µg/mL | 11.5 ± 0.76 µg/mL (≈ 38 µM) | 14.6 ± 0.31 µg/mL (≈ 48.2 µM) | > 20 µg/mL | > 20 µg/mL | > 20 µg/mL | > 20 µg/mL | > 20 µg/mL |
| COc1cc(O)c2c(c1)CCc1ccc(O)c(OC)c1-2 [CA-7] |  |  |  |  |  |  |  |  | > 20 µg/mL | > 20 µg/mL | > 20 µg/mL | > 20 µg/mL | 14.6 ± 0.34 µg/mL (≈ 53.7 µM) | 1 to 20 µg/mL | > 20 µg/mL | > 20 µg/mL |
| COc1cc2ccc3cccc(O)c3c2c(OC)c1O [CA-8] |  |  |  |  |  |  |  |  | > 20 µg/mL | > 20 µg/mL | > 20 µg/mL | > 20 µg/mL | > 20 µg/mL | > 20 µg/mL | > 20 µg/mL | > 20 µg/mL |
| COc1cc2c(cc1O)CCc1cc(O)cc(OC)c1-2 [CA-9] |  |  |  |  |  |  |  |  | > 20 µg/mL | 12.9 ± 0.32 µg/mL (≈ 47.3 µM) | 13 ± 0.42 µg/mL (≈ 47.7 µM) | 18.1 ± 0.26 µg/mL (≈ 66.5 µM) | 10.2 ± 0.27 µg/mL (≈ 37.6 µM) | 1 to 20 µg/mL | 19.5 ± 0.58 µg/mL (≈ 71.5 µM) | > 20 µg/mL |
| COc1cc(O)cc2c1-c1ccc(O)cc1CC2 [CA-10] |  |  |  |  |  |  |  |  | 7.52 µg/mL (≈ 31 µM) | 7.24 ± 0.18 µg/mL (≈ 29.9 µM) | 6.11 ± 0.51 µg/mL (≈ 25.2 µM) | 7.46 ± 0.32 µg/mL (≈ 30.8 µM) | 6.77 ± 0.12 µg/mL (≈ 27.9 µM) | 1 to 20 µg/mL | 7.56 ± 0.03 µg/mL (≈ 31.2 µM) | 16.4 ± 0.36 µg/mL (≈ 67.7 µM) |
| COc1cc(O)c(-c2c(O)cc(OC)c3c2CCc2cc(O)ccc2-3)c2c1-c1ccc(O)cc1CC2 [CA-11] |  |  |  |  |  |  |  |  | 7.17 ± 0.35 µg/mL (≈ 14.9 µM) | 6.28 ± 0.26 µg/mL (≈ 13 µM) | 5.86 ± 0.06 µg/mL (≈ 12.1 µM) | 7.4 ± 0.01 µg/mL (≈ 15.3 µM) | 4.84 ± 0.89 µg/mL (≈ 10 µM) | 1 to 20 µg/mL | 7.42 ± 0.03 µg/mL (≈ 15.4 µM) | 13.2 ± 0.33 µg/mL (≈ 27.3 µM) |
